One data set can be described thus: physchem. The following applies: for solubility: water. How it is done:
The solutions of solubilizer in water were saturated by stirring with excess of drug at room temperature for about 24 hours. The resulting suspensions were clarified either by filtration through a sintered glass filter or by centrifugation. Concentration of hormones in clarified solutions was measured spectrophotometrically. In these experiments drugs were solubilized with cyclodextrin derivatives with constant degrees of substitution and which are given in the footnote to Table 1.

For data set [1] the following is noted: Table 1, water, cited from earlier work.
Where [2] appears, read: hydroxypropyl-β-cyclodextrin in water, Solubility in solubilizer solution.
[3] abbreviates: hydroxypropyl-β-cyclodextrin in water, 24 h.
Setting [4] is: hydroxypropyl-β-cyclodextrin in water, Solubility in solubilizer solution, Table 1, hydroxypropyl-β-cyclodextrin in water, degree of substitution 6-7.
Setting [5] is: data from K. Uekama, Pharmacology International, 61-65 (1985).
The mark [6] stands for this setting: 50% aqueous carboxamido-β-cyclodextrin, Solubilities of steroids in 50% aqueous solutions of substituted cyclodextrins, Table 3, carboxamido-β-cyclodextrin.
Setting [7] is: 50% aqueous carboxymethyl-β-cyclodextrin, Solubilities of steroids in 50% aqueous solutions of substituted cyclodextrins, Table 3, carboxymethyl-β-cyclodextrin.
The mark [8] stands for this setting: 50% aqueous diethylaminoethyl-β-cyclodextrin, Solubilities of steroids in 50% aqueous solutions of substituted cyclodextrins, Table 3, diethylaminoethyl-β-cyclodextrin.
[9] abbreviates: 50% aqueous hydroxypropyl-beta-cyclodextrin, Solubilities of steroids in 50% aqueous solutions of hydroxypropyl-β-cyclodextrin, Table 2, d.s. 4.7.
Where [10] appears, read: 50% aqueous hydroxypropyl-beta-cyclodextrin, Solubilities of steroids in 50% aqueous solutions of hydroxypropyl-β-cyclodextrin, Table 2, d.s. 5.7.
The mark [11] stands for this setting: 50% aqueous hydroxypropyl-beta-cyclodextrin, Solubilities of steroids in 50% aqueous solutions of hydroxypropyl-β-cyclodextrin, Table 2, d.s. 7.0.
Where [12] appears, read: 50% aqueous hydroxypropyl-beta-cyclodextrin, Solubilities of steroids in 50% aqueous solutions of hydroxypropyl-β-cyclodextrin, Table 2, d.s. 14.
The mark [13] stands for this setting: data from J. Brotherton, Sex Hormone Pharmacology (1976), p. 36.

Values after ≈ are worked out from the molar mass of the structure shown. Where a name gives a salt, the structure may show the parent alone. Read-outs that look alike come from different tables or passages of the source.

Consider 29 compounds from patent publication US4727064A, “Pharmaceutical preparations containing cyclodextrin derivatives” (priority 1985, dated 1988).

Consider `CC1=C(/C=C/C(C)=C/C=C/C(C)=C/C=O)C(C)(C)CCC1` [retinal], for which the solubility at 24 h in the data set “physchem” (setting [2]) amounted to 2.6 mg/mL (≈ 9.14 mM). Moreover, the solubility in the data set “physchem” is less than 0.07 mg/mL.

With `CC1=C(/C=C/C(C)=C/C=C/C(C)=C/C(=O)O)C(C)(C)CCC1` [retinoic acid, sodium salt of all trans], the “Solubility in solubilizer solution” value in “physchem” (setting [3]) came out at 1.6 mg/mL.

Regarding `CC1=C(/C=C/C(C)=C/C=C/C(C)=C/CO)C(C)(C)CCC1` [retinol], the concentration in solution in “physchem” (setting [2]) (solubility at 24 h) came to 5.5 mg/mL (≈ 19.2 mM). In the data set “physchem”, the solubility is less than 0.1 mg/mL.

Regarding `C[C@]12CCC(=O)C=C1CC[C@@H]1[C@@H]2CC[C@@]2(C)[C@H]1CC[C@]2(C)O` [17-methyltestosterone], in the data set “physchem” (setting [4]), the solubility at 24 h turned out to be 39 mg/mL (≈ 129 mM). This compound came in with a solubility in “physchem” of less than 0.17 mg/mL.

`C#C[C@]1(O)CC[C@H]2[C@@H]3CCc4cc(OC)ccc4[C@H]3CC[C@@]21C` [ethinylestradiol-3-methyl ether] registered a solubility at 24 h in “physchem” (setting [2]) of 27 mg/mL (≈ 87 mM). The solubility in “physchem” was less than 1.5 mg/mL.

On to `Cl.Clc1cccc(Cl)c1NC1=NCCN1` [cloridine hydrochloride], for which, in “physchem” (Table 1, hydroxypropyl-β-cyclodextrin in water, degree of substitution 6-7, 1440 min), the “Solubility in solubilizer solution” value stood at 83.0 mg/mL.

In the case of `Cn1c(=O)c2[nH]cnc2n(C)c1=O` [theophylline], the solubility at 24 h in “physchem” (setting [4]) was determined as 11 mg/mL (≈ 61.1 mM). In “physchem”, this compound had a solubility of 8.3 mg/mL (≈ 46.1 mM).

For `CC1=C(/C=C/C(C)=C/C=C/C(C)=C/C(=O)O)C(C)(C)CCC1` [retinoic acid, ethanolamine salt of all trans], the solubility at 24 h in “physchem” (40% hydroxypropyl-β-cyclodextrin, 1% ethanolamine, Solubility in solubilizer solution) is 28.4 mg/mL.

Compound `C[C@@H]1C[C@H]2[C@@H]3CCC4=CC(=O)C=C[C@]4(C)[C@@]3(F)[C@@H](O)C[C@]2(C)[C@@]1(O)C(=O)CO` [dexamethasone] had a solubility at 24 h in “physchem” (setting [4]) of 24 mg/mL (≈ 61.2 mM). The compound also had a solubility in “physchem” of 0.1 mg/mL (≈ 0.255 mM).

For `CC(=O)S[C@@H]1CC2=CC(=O)CC[C@]2(C)[C@H]2CC[C@@]3(C)[C@@H](CC[C@@]34CCC(=O)O4)[C@H]12` [spironolactone], in the data set “physchem” (setting [2]), the solubility at 24 h came to 42 mg/mL (≈ 101 mM). The Solubility in water in data set [1] (setting [5]) is 0.03 mg/mL (≈ 0.072 mM).

Take `C[C@]12CC[C@@H]3c4ccc(O)cc4CC[C@H]3[C@@H]1C[C@@H](O)[C@@H]2O` [estriol]: the solubility at 24 h in the data set “physchem” (setting [4]) was 41 mg/mL (≈ 142 mM). For the same compound, the solubility in the data set “physchem” was less than 1.3 mg/mL.

For the compound `NS(=O)(=O)c1cc(C2(O)NC(=O)c3ccccc32)ccc1Cl` (stereo not shown) [chlorthalidone], the concentration in solution in “physchem” (setting [2]) (solubility at 24 h) came to 10.5 mg/mL (≈ 31 mM). Moreover, in “physchem”, the solubility came out at 0.12 mg/mL (≈ 0.354 mM).

Regarding `Nc1nc2c(ncn2COCCO)c(=O)[nH]1` [acyclovir], the Solubility in water entry in the data set “physchem” is on record as “insoluble”. In the data set “physchem” (setting [2]), this compound gave a solubility at 24 h of 2.5 mg/mL (≈ 11.1 mM).

Regarding `CC(=O)Nc1ccc(O)cc1` [acetamidophen], the solubility at 24 h in the data set “physchem” (setting [4]) amounted to 67 mg/mL (≈ 443 mM). The concentration in solution in the data set “physchem” (solubility) was 11 mg/mL (≈ 72.8 mM).

Turning to `CC(C)NNC(=O)c1ccncc1` [iproniazid phosphate], the solubility at 24 h in the data set “physchem” (setting [2]) stood at 95 mg/mL. In the data set “physchem”, this compound returned a solubility of 30 mg/mL.

As for `CC1=C(/C=C/C(C)=C/C=C/C(C)=C/C(=O)O)C(C)(C)CCC1` [retinoic acid, all trans], the “Solubility in solubilizer solution” value in “physchem” (setting [3]) stood at 0.8 mg/mL (≈ 2.66 mM). Also, the solubility in the data set “physchem” is less than 0.07 mg/mL.

Turning to `C[C@H]1O[C@@H](O[C@H]2[C@@H](O)C[C@H](O[C@H]3[C@@H](O)C[C@H](O[C@H]4CC[C@@]5(C)[C@H](CC[C@@H]6[C@@H]5C[C@@H](O)[C@]5(C)[C@@H](C7=CC(=O)OC7)CC[C@]65O)C4)O[C@@H]3C)O[C@@H]2C)C[C@H](O)[C@@H]1O` [digoxin], in “physchem” (setting [4]), the concentration in solution (solubility at 24 h) came to 45 mg/mL (≈ 57.6 mM). Further, in data set [1] (setting [5]), the Solubility in water was 0.07 mg/mL (≈ 0.0896 mM).

Take `CC(=O)[C@H]1CC[C@H]2[C@@H]3CCC4=CC(=O)CC[C@]4(C)[C@H]3CC[C@]12C` [progesterone]: the solubility at 24 h is 38 mg/mL (≈ 121 mM) in the data set “physchem” (setting [6]); 14 mg/mL (≈ 44.5 mM) in the data set “physchem” (setting [7]); 18 mg/mL (≈ 57.2 mM) in the data set “physchem” (setting [8]); 30 mg/mL (≈ 95.4 mM) in “physchem” (setting [9]); 44 mg/mL (≈ 140 mM) in the data set “physchem” (setting [10]); 35 mg/mL (≈ 111 mM) in “physchem” (setting [11]). Moreover, the solubility at 24 h came out at 23 mg/mL (≈ 73.1 mM) in the data set “physchem” (setting [12]) and 34 mg/mL (≈ 108 mM) in the data set “physchem” (setting [4]). In data set [1] (setting [13]), the Solubility in water is 0.015 mg/mL (≈ 0.0477 mM).

In the case of `C[C@]12CC[C@H]3[C@@H](CCC4=CC(=O)CC[C@@]43C)[C@@H]1CC[C@@H]2O` [testosterone], the solubility at 24 h was determined as 24 mg/mL (≈ 83.2 mM) in the data set “physchem” (setting [6]); 24 mg/mL (≈ 83.2 mM) in the data set “physchem” (setting [7]); 9 mg/mL (≈ 31.2 mM) in “physchem” (setting [8]); 56 mg/mL (≈ 194 mM) in “physchem” (setting [9]); 62 mg/mL (≈ 215 mM) in “physchem” (setting [10]); 40 mg/mL (≈ 139 mM) in “physchem” (setting [11]). For the same compound, the solubility at 24 h is 23 mg/mL (≈ 79.7 mM) in the data set “physchem” (setting [12]) and 38 mg/mL (≈ 132 mM) in the data set “physchem” (setting [4]). The Solubility in water in data set [1] (setting [13]) is 0.026 mg/mL (≈ 0.0901 mM).

In turn, `O=[N+]([O-])OCC(CO[N+](=O)[O-])O[N+](=O)[O-]` [nitroglycerin] displayed a solubility at 24 h in “physchem” (setting [4]) of 10.4 mg/mL (≈ 45.8 mM). Moreover, the concentration in solution in “physchem” (solubility) came to 1.25 mg/mL (≈ 5.5 mM).

In “physchem” (setting [4]), `C#C[C@]1(O)CC[C@H]2[C@@H]3CCC4=CC(=O)CC[C@]4(C)[C@H]3CC[C@@]21C` [ethisterone] had a solubility at 24 h of 0.5 mg/mL (≈ 1.6 mM). In “physchem”, this compound had a solubility of less than 0.2 mg/mL.

In the case of `CN1CCc2cccc3c2[C@H]1Cc1ccc(O)c(O)c1-3` [apomorphine], the concentration in solution in the data set “physchem” (setting [2]) (solubility at 24 h) came to 116 mg/mL (≈ 434 mM). The compound also gave a solubility in “physchem” of 20 mg/mL (≈ 74.8 mM).

In the data set “physchem” (setting [4]), `CC1OC(OC2CC(O)C3(CO)C4C(O)CC5(C)C(C6=CC(=O)OC6)CCC5(O)C4CCC3(O)C2)C(O)C(O)C1O` (stereo not shown) [oubain] yielded a solubility at 24 h of 80 mg/mL (≈ 137 mM). Further, the solubility in “physchem” was 13 mg/mL (≈ 22.2 mM).

Take `Cc1cc(C(C)(C)C)c(O)c(C(C)(C)C)c1` [butylated hydroxytoluene]: the Solubility in water result in the data set “physchem” (Table 1, water) is on record as “insoluble”. Also, the solubility at 24 h worked out at 0.3 mg/mL (≈ 1.36 mM) in “physchem” (hydroxypropyl-α-cyclodextrin in water, Solubility in solubilizer solution, Table 1, hydroxypropyl-α-cyclodextrin in water, degree of substitution 6-7); 3 mg/mL (≈ 13.6 mM) in the data set “physchem” (setting [4]); 0.2 mg/mL (≈ 0.908 mM) in the data set “physchem” (hydroxypropyl-γ-cyclodextrin in water, Solubility in solubilizer solution, Table 1, hydroxypropyl-γ-cyclodextrin in water, degree of substitution 6-7).

As for `O=C1NC(=O)C(c2ccccc2)(c2ccccc2)N1` [diphenylhydantoin], the solubility at 24 h in “physchem” (setting [4]) came to 1.7 mg/mL (≈ 6.74 mM). In addition, the Solubility in water in data set [1] (setting [5]) was 0.03 mg/mL (≈ 0.119 mM).

Take `CC1=C(/C=C/C(C)=C/C=C/C(C)=C/C(=O)O)C(C)(C)CCC1` [retinoic acid, choline salt of all trans]: in “physchem” (setting [3]), the “Solubility in solubilizer solution” value amounted to 18.8 mg/mL.

In turn, `NS(=O)(=O)c1cc2c(cc1C(F)(F)F)NCNS2(=O)=O` [hydroflumethiazide] displayed a solubility at 24 h in “physchem” (setting [2]) of 9.3 mg/mL (≈ 28.1 mM). The compound further came in with a solubility in the data set “physchem” of 0.3 mg/mL (≈ 0.906 mM).

`COc1ccc2c(c1)c(CC(=O)O)c(C)n2C(=O)c1ccc(Cl)cc1` [indomethacin] registered a solubility at 24 h in the data set “physchem” (setting [4]) of 4.2 mg/mL (≈ 11.7 mM). For the same compound, in data set [1] (setting [5]), the Solubility in water is 0.02 mg/mL (≈ 0.0559 mM).

`C=C1CC[C@H](O)C/C1=C/C=C1\CCC[C@]2(C)[C@@H]([C@H](C)CCCC(C)C)CC[C@@H]12` [cholecalciferol]: the solubility at 24 h in the data set “physchem” (setting [4]) came out at 10 mg/mL (≈ 26 mM). In addition, the solubility in the data set “physchem” is less than 0.23 mg/mL.
